Results on 16 compounds are retold here after patent US12090146B2, “Substituted-pyridinyl compounds and uses thereof” (Bionomics Limited, priority 2018, dated 2024).

One assay has as its target T1, hKv3.1 (Homo sapiens, UniProt P48547).
T1 construct: expressed in transfected cells
T1 sequence (P48547 1-511): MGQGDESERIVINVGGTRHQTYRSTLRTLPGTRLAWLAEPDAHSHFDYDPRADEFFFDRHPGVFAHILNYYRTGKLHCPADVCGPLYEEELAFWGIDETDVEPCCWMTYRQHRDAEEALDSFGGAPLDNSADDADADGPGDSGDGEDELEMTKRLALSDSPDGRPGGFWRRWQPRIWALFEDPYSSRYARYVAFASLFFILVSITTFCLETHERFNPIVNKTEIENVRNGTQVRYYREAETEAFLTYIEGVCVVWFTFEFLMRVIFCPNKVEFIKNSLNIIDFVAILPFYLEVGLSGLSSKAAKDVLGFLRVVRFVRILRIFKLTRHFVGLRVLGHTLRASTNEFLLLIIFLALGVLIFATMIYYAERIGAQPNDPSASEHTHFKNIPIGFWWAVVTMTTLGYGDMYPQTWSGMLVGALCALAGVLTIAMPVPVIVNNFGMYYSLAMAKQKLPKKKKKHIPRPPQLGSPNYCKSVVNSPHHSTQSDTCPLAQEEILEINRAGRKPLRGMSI
The assay is described as follows: Automated patch clamp (Patchliner) whole-cell electrophysiology, Kv3.1. As to conditions: 10 μM compound, CHO-K1 cells stably expressing hKv3.1; for Kv3.1 Activity at 10 μM Potentiation (%): % potentiation of peak current at −10 mV voltage step vs vehicle; for Kv3.1 Activity at 10 μM Voltage Shift (mV): voltage shift of the IV curve at V1/2. It is filed as cell-based. How it is done: (§1) hKv3.1, hKv3.2, hKv3.3, and hKv3.4 were stably expressed in CHO-K1 (Chinese hamster ovary) cells and kept under constant antibiotic selection. For in vitro assays, cells were maintained in appropriate growth medium at 37° C. and 5% CO2 in a humidified incubator.
(§2) hKv3.X expressing cells were plated in T-25 flasks for 3-4 days at 37° C. (no selection antibiotic) prior to use and grown to 80% confluence. Cells were washed twice with PBS (calcium and magnesium free) and detached with a 5-minute treatment at 37° C. with 2-3 mls of Accutase®. Cells were collected, and flask was washed in CHO-SFM II media (Life Technologies Gibco), centrifuged for 2 minutes at ˜110×g and resuspended to obtain a single cell suspension of ˜2-3×10^6 cells/ml.
(§3) The intracellular solution contained the following (in mM): KCl 50, NaCl 10, KF 60, EGTA 20, HEPES 10, adjusted to pH 7.2 with KOH and an osmolarity of 285 mOsmol. Seal enhancer was purchased from Nanion (80 mM NaCl, 3 mM KCl, 10 mM MgCl2, 35 mM CaCl2), 10 mM HEPES, pH7.4, 298 mOsmol. The external solution contained (in mM): NaCl 140, KCl 4, CaCl2) 2, MgCl2 1, HEPES 10, Glucose 5, adjusted to pH7.4 and an osmolarity of 298 mOsmol.
(§4) All compounds were initially tested at 10 uM at a final DMSO concentration of 0.33%. Compounds were dissolved in dimethylsulfoxide (DMSO) at a stock concentration of 30 mM. The compound was further diluted 1:10 to give a stock concentration of 3 mM in DMSO. The final assay solution was diluted 1:300 in External solution to give a final concentration of 10 uM. For the DMSO Control Buffer 30 uL of DMSO was added to 10 mL buffer.
(§5) All electrophysiological recordings were performed at ambient temperature (21-23° C.) using automated patch clamp (Patchliner, Nanion Technologies GmbH) in the whole-cell configuration.
(§6) Cell membrane potentials were held at −80 mV, and currents were evoked by voltage steps (1000 ms duration) from −60 to +60 mV in 10 mV increments. This was performed first with vehicle (0.33% DMSO) and then with 10 uM compound, after a 3-minute incubation period. Data was taken from 4 cells per assay.
(§7) The recordings were analysed and selected using peak current amplitude (>100 pA at the −10 mV voltage step) in the absence of compound to eliminate unsuitable cells from analysis. Peak current amplitude was measured and recorded for each voltage step and data was normalised to the maximum current at +60 mV. The normalised Kv3.x currents following addition of the compound were then compared with the currents recorded prior to compound addition (vehicle control). Positive modulation was determined as % potentiation at the voltage step of −10 mV=[current (cmpd)/current (veh)]*100−100. % potentiation ≥50% was considered acceptable. In addition, voltage shift of the IV curve at V1/2 was measured. V1/2 of ≥−5 mV was also considered acceptable. IV curves were plotted in GraphPad Prism (software version 6.0) and fitted with a Boltzmann equation, where V1/2 is the voltage at half-maximal activation.
A general note: Patch clamp records ionic current or voltage across a cell membrane.

In another assay the target is T2, hKv3.2 (Homo sapiens, UniProt Q96PR1).
T2 construct: expressed in transfected cells
T2 sequence (Q96PR1 1-638): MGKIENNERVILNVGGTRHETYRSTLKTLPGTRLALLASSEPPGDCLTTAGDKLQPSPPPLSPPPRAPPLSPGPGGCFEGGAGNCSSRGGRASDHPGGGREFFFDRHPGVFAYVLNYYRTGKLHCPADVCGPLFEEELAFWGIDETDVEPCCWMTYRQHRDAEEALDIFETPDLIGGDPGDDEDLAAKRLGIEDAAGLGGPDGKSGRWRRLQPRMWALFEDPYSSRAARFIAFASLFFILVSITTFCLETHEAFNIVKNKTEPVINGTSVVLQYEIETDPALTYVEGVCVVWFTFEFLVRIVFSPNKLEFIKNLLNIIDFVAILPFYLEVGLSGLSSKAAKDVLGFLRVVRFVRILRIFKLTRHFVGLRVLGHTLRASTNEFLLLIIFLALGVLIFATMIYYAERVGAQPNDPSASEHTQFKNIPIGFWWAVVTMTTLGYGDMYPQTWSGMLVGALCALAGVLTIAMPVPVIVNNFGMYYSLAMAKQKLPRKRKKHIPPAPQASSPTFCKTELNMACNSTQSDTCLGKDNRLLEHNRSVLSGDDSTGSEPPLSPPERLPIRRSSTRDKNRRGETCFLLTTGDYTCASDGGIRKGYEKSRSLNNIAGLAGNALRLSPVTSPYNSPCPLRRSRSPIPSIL
Description: Automated patch clamp (Patchliner) whole-cell electrophysiology, Kv3.2. It is filed as cell-based. As to conditions: 10 μM compound, CHO-K1 cells stably expressing hKv3.2; for activation at 10 µM: % potentiation of peak current at −10 mV voltage step vs vehicle; for Kv3.2 Activity at 10 μM Voltage Shift (mV): voltage shift of the IV curve at V1/2. As to the method: as §1, §2, §3, §4, §5, §6, §7

`COc1cc(Oc2cc(N3C(=O)NC(C)(C)C3=O)ccn2)ccc1C` [Example 1, 3-[2-(3-methoxy-4-methyl-phenoxy)-4-pyridyl]-5,5-dimethyl-imidazolidine-2,4-dione]: on hKv3.1, the “Kv3.1 Activity at 10 μM Potentiation (%)” value is reported as 53% and the “Kv3.1 Activity at 10 μM Voltage Shift (mV)” value is reported as −2.9 mV. Also, on hKv3.2, the activation at 10 µM came to 21% and the “Kv3.2 Activity at 10 μM Voltage Shift (mV)” value is −1.23 mV.
For `CC1(C)NC(=O)N(c2ccnc(Oc3ccc4c(c3)CCC4)c2)C1=O` [Example 3, 3-(2-indan-5-yloxy-4-pyridyl)-5,5-dimethyl-imidazolidine-2,4-dione] the same measures were 58%, −4.65 mV, 66% and −6.71 mV.
Consider `COc1cc(Oc2cc(N3C(=O)NC(C)(C)C3=O)ccn2)ccc1C(F)(F)F` [Example 4, 3-[2-[3-methoxy-4-(trifluoromethyl)phenoxy]-4-pyridyl]-5,5-dimethyl-imidazolidine-2,4-dione], for which, at hKv3.1, the “Kv3.1 Activity at 10 μM Potentiation (%)” value came to 36% and the “Kv3.1 Activity at 10 μM Voltage Shift (mV)” value is given as −5.13 mV. Also, at hKv3.2, the activation at 10 µM was determined as 14% and the “Kv3.2 Activity at 10 μM Voltage Shift (mV)” value is −4.12 mV.
On to `COc1cc(Oc2cc(N3C(=O)NC(C)(C)C3=O)ccn2)ccc1F` [Example 6, 3-[2-[3-methoxy-4-fluorophenoxy]-4-pyridyl]-5,5-dimethyl-imidazolidine-2,4-dione], for which, at hKv3.2, the activation at 10 µM amounted to 25% and the “Kv3.2 Activity at 10 μM Voltage Shift (mV)” value is on record as −3.18 mV.
On to `COc1cc(Oc2cc(N3C(=O)NC(C)(C)C3=O)ccn2)ccc1Cl` [Example 8, 3-[2-(4-chloro-3-methoxy-phenoxy)-4-pyridyl]-5,5-dimethyl-imidazolidine-2,4-dione], for which, at hKv3.1, the “Kv3.1 Activity at 10 μM Potentiation (%)” value was 32% and the “Kv3.1 Activity at 10 μM Voltage Shift (mV)” value is −4.09 mV. In addition, on hKv3.2, the activation at 10 µM worked out at 22% and the “Kv3.2 Activity at 10 μM Voltage Shift (mV)” value is given as −2.39 mV.
On the same counts, the results for `CC1(C)NC(=O)N(c2ccnc(Oc3ccc4c(c3)OC(F)(F)O4)c2)C1=O` [Example 9, 3-[2-[(2,2-difluoro-1,3-benzodioxol-5-yl)oxy]-4-pyridyl]-5,5-dimethyl-imidazolidine-2,4-dione] are 80%, −6.49 mV, 30% and −3.92 mV.
For `CC[C@@]1(C)NC(=O)N(c2ccnc(Oc3ccc(C)c(OC)c3)c2)C1=O` [Example 10, (5R)-5-ethyl-3-[2-(3-methoxy-4-methyl-phenoxy)-4-pyridyl]-5-methyl-imidazolidine-2,4-dione], on hKv3.1, the “Kv3.1 Activity at 10 μM Potentiation (%)” value came out at 72% and the “Kv3.1 Activity at 10 μM Voltage Shift (mV)” value was −5.46 mV. Further, at hKv3.2, the activation at 10 µM stood at 21% and the “Kv3.2 Activity at 10 μM Voltage Shift (mV)” value is reported as −2.67 mV.
Consider `CC[C@@]1(C)NC(=O)N(c2ccnc(Oc3ccc4c(c3)OC(F)(F)O4)c2)C1=O` [Example 16, (5R)-3-[2-[(2,2-difluoro-1,3-benzodioxol-5-yl)oxy]-4-pyridyl]-5-ethyl-5-methyl-imidazolidine-2,4-dione], for which, at hKv3.2, the activation at 10 µM is 47% and the “Kv3.2 Activity at 10 μM Voltage Shift (mV)” value was −3.63 mV.
For `COc1cc(Oc2cc(N3C(=O)NC4(CCCCC4)C3=O)ccn2)ccc1C` [Example 24, 3-[2-(3-methoxy-4-methyl-phenoxy)-4-pyridyl]-1,3-diazaspiro[4.5]decane-2,4-dione] the same measures were 42% and −5.52 mV.
Consider `CC[C@@]1(C)NC(=O)N(c2cccc(Oc3ccc4c(c3)OCCC4)n2)C1=O` [Example 64, (5R)-3-(6-chroman-7-yloxy-2-pyridyl)-5-ethyl-5-methyl-imidazolidine-2,4-dione], for which, on hKv3.1, the “Kv3.1 Activity at 10 μM Potentiation (%)” value was found to be 15% and the “Kv3.1 Activity at 10 μM Voltage Shift (mV)” value is −2.57 mV.
With `CC[C@@]1(C)NC(=O)N(c2cccc(Oc3ccc(C)c(C)c3)n2)C1=O` [Example 65, (5R)-3-[6-(3,4-dimethylphenoxy)-2-pyridyl]-5-ethyl-5-methyl-imidazolidine-2,4-dione], at hKv3.1, the “Kv3.1 Activity at 10 μM Potentiation (%)” value is recorded as 22% and the “Kv3.1 Activity at 10 μM Voltage Shift (mV)” value is −3.79 mV.
For `CC[C@@]1(C)NC(=O)N(c2cccc(Oc3cccc4c3CCC4)n2)C1=O` [Example 69, (5R)-5-ethyl-3-(6-indan-4-yloxy-2-pyridyl)-5-methyl-imidazolidine-2,4-dione] the same measures were 73% and −3 mV.
As for `CC[C@]1(C)NC(=O)N(c2cccc(Oc3ccc(C)c(OC)c3)n2)C1=O` [Example 72, (5S)-5-ethyl-3-[6-(3-methoxy-4-methyl-phenoxy)-2-pyridyl]-5-methyl-imidazolidine-2,4-dione], on hKv3.1, the “Kv3.1 Activity at 10 μM Potentiation (%)” value turned out to be 33% and the “Kv3.1 Activity at 10 μM Voltage Shift (mV)” value is given as −4.25 mV.
As for `COc1cc(Oc2cccc(N3C(=O)NC(C)(C)C3=O)n2)ccc1C` [Example 73, 3-[6-(3-methoxy-4-methyl-phenoxy)-2-pyridyl]-5,5-dimethyl-imidazolidine-2,4-dione], at hKv3.1, the “Kv3.1 Activity at 10 μM Potentiation (%)” value is on record as 26% and the “Kv3.1 Activity at 10 μM Voltage Shift (mV)” value is listed as −1.61 mV.
For `CC(C)c1cc(Oc2cccc(N3C(=O)NC(C)(C)C3=O)n2)ccc1C#N` [Example 77, 4-[[6-(4,4-dimethyl-2,5-dioxo-imidazolidin-1-yl)-2-pyridyl]oxy]-2-isopropyl-benzonitrile], at hKv3.1, the “Kv3.1 Activity at 10 μM Potentiation (%)” value is given as 12% and the “Kv3.1 Activity at 10 μM Voltage Shift (mV)” value is −0.95 mV.
`CC[C@@]1(C)NC(=O)N(c2ccc(F)c(Oc3ccc(C)c(OC)c3)n2)C1=O` [Example 89, (5R)-5-ethyl-3-[5-fluoro-6-(3-methoxy-4-methyl-phenoxy)-2-pyridyl]-5-methyl-imidazolidine-2,4-dione]: at hKv3.2, the activation at 10 µM is 28% and the “Kv3.2 Activity at 10 μM Voltage Shift (mV)” value is recorded as −2.58 mV.
